# Measured values published in patent publication US8802638B1, “Flavonoid treatment of glycogen synthase kinase-based disease” (University of South Florida, priority 2007, dated 2014).
# Experiments:
# TACE, ADAM10, sAPPα = test: non-amyloidogenic APP processing (TACE, ADAM10 maturation, sAPPα release); type: cell-based; conditions: data not shown
# Text: The presence of phosphorylated PS1 CTFs corresponds with reduction of Aβ generation and accumulation of the β-CTF of APP, as was observed following luteolin treatment. The accumulation β-CTFs following luteolin treatment is a fraction of β-CTF seen after direct γ-secretase inhibitor treatment (data not shown). In view of this finding, selective GSK-3 inactivation is a less toxic, more regulative, substrate-specific mode of γ-secretase inhibition. Earlier studies routinely employed phorbol-12,13-dibutyrate (PDBu), a potent PKC activator, as their phosphorylating agent. Thus, luteolin was tested for similar PKC activation, rather than a GSK-3 inhibitor. […] Additionally, there are no indications GSK-3α inhibition affects non-amyloidogenic processing of APP, since luteolin, SB-415286, and GSK-3α RNAi treatment have no effect on the maturation of TACE, ADAM10, or sAPPα release (data not shown), which are all strongly associated with PKC activation.
# [1] = cited from earlier work
compound,measurement,setting,value
O=c1cc(-c2ccc(O)c(O)c2)oc2cc(O)cc(O)c12 [luteolin],"maturation of TACE, ADAM10, or sAPPα release","TACE, ADAM10, sAPPα",no effect
same,half-life in plasma,[1]; in vivo,< 4 h
same,oral bioavailability,[1]; oral,< 2%
